We go through four molecules from article PMC7248105, “Photoinduced monooxygenation involving NAD(P)H-FAD sequential single-electron transfer” (Nature Communications, 2020).

The target of data set [1] is T1, PqsL (Pseudomonas aeruginosa, UniProt Q9HWJ1).
T1 construct: final models contain residues 3–370
In words: X-ray crystal structure with FAD and 2-ABA; KD by fluorescence spectroscopy. It is filed as binding.

The target in data set [2] is T1, PqsL. The experiment in a line: FAD fluorescence polarization; X-ray crystal structure. In kind it is binding. (In general: Polarisation of emitted light reports the rotation of a fluorescent probe.)
A further data set has as its target T2, PqsL-Q (Pseudomonas aeruginosa, UniProt Q9HWJ1, C105G/G45R/I43R/R41Y).
T2 construct: final models contain residues 3–370
T2 sequence (Q9HWJ1 1-398 R41Y/I43R/G45R/C105G): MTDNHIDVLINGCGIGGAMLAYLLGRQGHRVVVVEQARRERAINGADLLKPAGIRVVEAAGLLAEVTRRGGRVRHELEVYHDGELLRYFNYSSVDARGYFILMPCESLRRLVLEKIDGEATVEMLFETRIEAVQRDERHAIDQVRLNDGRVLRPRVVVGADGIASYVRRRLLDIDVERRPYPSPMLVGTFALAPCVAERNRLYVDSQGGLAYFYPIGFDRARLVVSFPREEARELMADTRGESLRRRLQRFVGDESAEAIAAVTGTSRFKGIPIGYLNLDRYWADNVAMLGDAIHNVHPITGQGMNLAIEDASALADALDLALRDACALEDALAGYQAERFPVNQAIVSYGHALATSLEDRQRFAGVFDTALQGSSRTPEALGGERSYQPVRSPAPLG
The data set is described as above. It is filed as binding.

The target of data set [3] is T3, PqsL (Pseudomonas aeruginosa, UniProt Q9HWJ1, P273A).
T3 sequence (Q9HWJ1 1-398 P273A): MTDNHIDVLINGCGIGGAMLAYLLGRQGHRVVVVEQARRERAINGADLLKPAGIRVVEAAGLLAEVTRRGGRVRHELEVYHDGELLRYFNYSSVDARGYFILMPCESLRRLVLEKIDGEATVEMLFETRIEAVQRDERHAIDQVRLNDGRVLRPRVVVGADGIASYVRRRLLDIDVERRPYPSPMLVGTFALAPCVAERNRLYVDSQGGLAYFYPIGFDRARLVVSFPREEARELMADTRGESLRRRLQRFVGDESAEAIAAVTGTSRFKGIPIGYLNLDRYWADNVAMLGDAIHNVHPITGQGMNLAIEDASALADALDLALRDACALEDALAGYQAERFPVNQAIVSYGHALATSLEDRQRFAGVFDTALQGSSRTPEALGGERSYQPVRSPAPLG
In words: FAD binding affinity (fluorescence spectroscopy).

For data set [4], the system named is NC(=O)C1=CN([C@@H]2O[C@H](COP(=O)(O)OP(=O)(O)OC[C@H]3O[C@@H](n4cnc5c(N)ncnc54)[C@H](OP(=O)(O)O)[C@@H]3O)[C@@H](O)[C@H]2O)C=CC1. The experiment in a line: purified protein. As to conditions: FAD.
In data set [5] the test system is NC(=O)C1=CN([C@@H]2O[C@H](COP(=O)(O)OP(=O)(O)OC[C@H]3O[C@@H](n4cnc5c(N)ncnc54)[C@H](O)[C@@H]3O)[C@@H](O)[C@H]2O)C=CC1. In words: purified protein. As to conditions: FAD.
Data set [6] concerns the molecule itself. In words: SEC; analytical gel filtration, Superdex 200 Increase 10/300 GL, 20 mM tris-HCl pH 8.5 without NaCl, 12 °C, calibrated with Bio-Rad standard. (In gel filtration, larger molecules generally elute earlier.)

`Nc1ccccc1C(=O)CC(=O)O` [2-ABA, 2-aminobenzoylacetate] returned an equilibrium dissociation constant (Kd) on PqsL [1] of 38.4 ± 3.98 µM. Regarding `Cc1cc2nc3c(=O)[nH]c(=O)nc-3n(C[C@H](O)[C@H](O)[C@H](O)COP(=O)(O)OP(=O)(O)OC[C@H]3O[C@@H](n4cnc5c(N)ncnc54)[C@H](O)[C@@H]3O)c2cc1C` [FAD], the Kd came out at 0.25 ± 0.0298 µM at PqsL [2], 0.0375 ± 0.0067 µM at PqsL-Q and 64 µM at PqsL [3]. As to PqsL (Pseudomonas aeruginosa PAO1), the Michaelis constant (Km) is 157.5 ± 18.9 µM in data set [4] and 310.9 ± 21.6 µM in data set [5].

B1: PqsL (flavoprotein monooxygenase, wild type) (enzyme, Pseudomonas aeruginosa)
chain: MTDNHIDVLINGCGIGGAMLAYLLGRQGHRVVVVEQARRERAINGADLLKPAGIRVVEAAGLLAEVTRRGGRVRHELEVYHDGELLRYFNYSSVDARGYFILMPCESLRRLVLEKIDGEATVEMLFETRIEAVQRDERHAIDQVRLNDGRVLRPRVVVGADGIASYVRRRLLDIDVERRPYPSPMLVGTFALAPCVAERNRLYVDSQGGLAYFYPIGFDRARLVVSFPREEARELMADTRGESLRRRLQRFVGDESAEAIAAVTGTSRFKGIPIGYLNLDRYWADNVAMLGDAIHNVHPITGQGMNLAIEDASALADALDLALRDACALEDALAGYQAERFPVNQAIVSYGHALATSLEDRQRFAGVFDTALQGSSRTPEALGGERSYQPVRSPAPLG
notes: PqsL, FAD-dependent monooxygenase of alkyl quinolone N-oxide biosynthesis, Pseudomonas aeruginosa; the crystal models hold residues 3-370; One protomer is written; also called Wild-type PqsL; FPMO PqsL; source: E. coli LMG194 (pHERD30T), purified (Ni-NTA, Resource Q anion exchange)
As to B1, the “stoichiometry N” value in data set [6] is 2.

As a reminder, the Kd is the free concentration of one partner at which half of the binding sites on the other are occupied at equilibrium, for simple one-to-one binding. A lower Kd goes with higher affinity. As a reminder, the Km is the substrate concentration at which the rate is half of its maximum. A word on the stoichiometry N: it is the number of molecules, sites or subunits per partner or assembly.
